Laboratory results published in patent publication US20120270929A1, “MODULATION OF TTC39 EXPRESSION TO INCREASE HDL” (ISIS Pharmaceuticals, Inc., priority 2009, published 2012).
Oligonucleotides are written 5' to 3', each unit as a sugar letter and its base; * is a phosphorothioate linkage, no mark a phosphodiester; rarer units and linkages stand in square brackets, end groups in braces. Plain capitals give the bases only. e = 2'-O-(2-methoxyethyl) (MOE); [5mC] = 5-methylcytosine; d = 2'-deoxy (DNA)

Key:
murine TTC39A mRNA [1] = assay: Dose-dependent antisense inhibition of murine TTC39A in b.END cells; type: cell-based, mouse; settings: ~16 h; for IC50: cytofectin
Experimental: Cells were plated at a density of 3,500 cells per well and transfected using cytofectin reagent with 4.375 nM, 8.75 nM, 17.5 nM, 35 nM, 70 nM, and 140 nM concentrations of antisense oligonucleotide, as specified in Table 28. After a treatment period of approximately 16 hours, RNA was isolated from the cells and TTC39A mRNA levels were measured by quantitative real-time PCR. Murine primer probe set RTS3262 was used to measure mRNA levels. TTC39A mRNA levels were adjusted according to total RNA content, as measured by RIBOGREEN®. Results are presented as percent inhibition of TTC39A, relative to untreated control cells.

murine TTC39A mRNA [2] = assay: Antisense inhibition of mouse TTC39A in b.END cells, single dose; type: cell-based; settings: 70 nM, cytofectin, ~24 h, vs untreated control
Experimental: Antisense oligonucleotides were designed targeting a TTC39A nucleic acid and were tested for their effects on TTC39A mRNA in vitro. Cultured b.END cells at a density of 4,000 cells per well were transfected using cytofectin reagent with 70 nM antisense oligonucleotide. After a treatment period of approximately 24 hours, RNA was isolated from the cells and TTC39A mRNA levels were measured by quantitative real-time PCR. Mouse primer probe set RTS3262 (forward sequence TGTGCGTCATGCTGTTGCT, designated herein as SEQ ID NO: 113; reverse sequence […], designated herein as SEQ ID NO: 114; probe sequence […], designated herein as SEQ ID NO: 115). TTC39A mRNA levels were adjusted according to total RNA content, as measured by RIBOGREEN®. Results are presented as percent inhibition of TTC39A, relative to untreated control cells.
The chimeric antisense oligonucleotides targeting TTC39A were designed as 5-10-5 MOE gapmers. The gapmers are 20 nucleotides in length, wherein the central gap segment is comprised of ten 2′-deoxynucleotides and is flanked on both sides (in the 5′ and 3′ directions) by wings comprising five nucleotides each. Each nucleotide in the 5′ wing segment and each nucleotide in the 3′ wing segment has a 2′-MOE modification. The internucleoside linkages throughout each gapmer are phosphorothioate (P═S) linkages. All cytosine residues throughout each gapmer are 5-methylcytosines. “Mouse Target start site” indicates the 5′-most nucleotide to which the gapmer is targeted in a mouse nucleic acid sequence.

murine TTC39B mRNA [3] = assay: Dose-dependent antisense inhibition of murine TTC39B in mouse primary hepatocytes (Example 3); type: cell-based; settings: cytofectin, ~16 h
Experimental: (§1) Cells were plated at a density of 10,000 cells per well and transfected using cytofectin reagent with 6.25 nM, 12.5 nM, 25 nM, 50 nM, 100 nM, and 200 nM concentrations of antisense oligonucleotide, as specified in Table 4. After a treatment period of approximately 16 hours, RNA was isolated from the cells and TTC39B mRNA levels were measured by quantitative real-time PCR. Murine primer probe set mTtc39b_LTS00287 was used to measure mRNA levels. TTC39B mRNA levels were adjusted according to total RNA content, as measured by RIBOGREEN®. Results are presented as percent inhibition of TTC39B, relative to untreated control cells.

murine TTC39B mRNA [4] = assay: Antisense inhibition of murine TTC39B in mouse primary hepatocytes, single dose; type: cell-based; settings: 100 nM, cytofectin, ~24 h, vs untreated control; gapmers targeted to SEQ ID NO: 10-14
In short: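 Mouse primary hepatocytes transfected by cytofectin with 100 nM 5-10-5 MOE gapmer (20-mer, phosphorothioate, 5-methylcytosine) for ~24 h. TTC39B mRNA quantified by real-time qPCR, normalized to RIBOGREEN total RNA. Values given as percent inhibition versus untreated cells.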

murine TTC39B mRNA [5] = assay: Dose-dependent antisense inhibition of murine TTC39B in mouse primary hepatocytes (Example 2); type: cell-based; settings: cytofectin, ~16 h
Experimental: as §1, with “with” for “with 6.25 nM, 12.5 nM,”, “3.” for “4.”, “mTtc39b_LTS00287 (forward sequence: […], incorporated herein as SEQ ID NO: 94; reverse sequence: […], incorporated herein as SEQ ID NO: 95; probe sequence: […], incorporated herein as SEQ ID NO: 96)” for “mTtc39b_LTS00287”

Row | Sequence | percent inhibition of TTC39A mRNA (murine TTC39A mRNA [1]; 4.375 nM) | percent inhibition of TTC39A mRNA (murine TTC39A mRNA [1]; 8.75 nM) | percent inhibition of TTC39A mRNA (murine TTC39A mRNA [1]; 17.5 nM) | percent inhibition of TTC39A mRNA (murine TTC39A mRNA [1]; 35.0 nM) | percent inhibition of TTC39A mRNA (murine TTC39A mRNA [1]; 70.0 nM) | percent inhibition of TTC39A mRNA (murine TTC39A mRNA [1]; 140.0 nM) | IC50 (murine TTC39A mRNA [1]) | % inhibition of murine TTC39A mRNA (murine TTC39A mRNA [2]) | percent inhibition of TTC39B mRNA (murine TTC39B mRNA [3]; 6.25 nM) | percent inhibition of TTC39B mRNA (murine TTC39B mRNA [3]; 12.5 nM) | percent inhibition of TTC39B mRNA (murine TTC39B mRNA [3]; 25.0 nM) | percent inhibition of TTC39B mRNA (murine TTC39B mRNA [3]; 50.0 nM) | percent inhibition of TTC39B mRNA (murine TTC39B mRNA [3]; 100.0 nM) | percent inhibition of TTC39B mRNA (murine TTC39B mRNA [3]; 200.0 nM) | % inhibition of murine TTC39B mRNA (murine TTC39B mRNA [4]) | percent inhibition of TTC39B mRNA (murine TTC39B mRNA [5]; 25 nM) | percent inhibition of TTC39B mRNA (murine TTC39B mRNA [5]; 50 nM) | percent inhibition of TTC39B mRNA (murine TTC39B mRNA [5]; 100 nM) | percent inhibition of TTC39B mRNA (murine TTC39B mRNA [5]; 200 nM)
1 | AGTTGGGACCCAGAAGGCCT (eA*eG*eT*eT*eG*dG*dG*dA*d[5mC]*d[5mC]*d[5mC]*dA*dG*dA*dA*eG*eG*e[5mC]*e[5mC]*eT; antisense) [ISIS 474497] | 8% | 5% | 21% | 29% | 53% | 77% | 72 nM | 94% |  |  |  |  |  |  |  |  |  |  | 
2 | CACCTGGGTTTGAGGTAGCT (e[5mC]*eA*e[5mC]*e[5mC]*eT*dG*dG*dG*dT*dT*dT*dG*dA*dG*dG*eT*eA*eG*e[5mC]*eT; antisense) [ISIS 474498] | 0% | 6% | 33% | 55% | 64% | 80% | 35 nM | 95% |  |  |  |  |  |  |  |  |  |  | 
3 | CCGCACTTTGATGCCGCCCT (e[5mC]*e[5mC]*eG*e[5mC]*eA*d[5mC]*dT*dT*dT*dG*dA*dT*dG*d[5mC]*d[5mC]*eG*e[5mC]*e[5mC]*e[5mC]*eT; antisense) [ISIS 474435] | 0% | 2% | 11% | 8% | 52% | 76% | 67 nM | 94% |  |  |  |  |  |  |  |  |  |  | 
4 | CGCCTGGACTTCCGGATAGC (e[5mC]*eG*e[5mC]*e[5mC]*eT*dG*dG*dA*d[5mC]*dT*dT*d[5mC]*d[5mC]*dG*dG*eA*eT*eA*eG*e[5mC]; antisense) [ISIS 474369] | 0% | 14% | 22% | 48% | 62% | 82% | 44 nM | 96% |  |  |  |  |  |  |  |  |  |  | 
5 | GCATGTAGAGAACTTCCAGG (eG*e[5mC]*eA*eT*eG*dT*dA*dG*dA*dG*dA*dA*d[5mC]*dT*dT*e[5mC]*e[5mC]*eA*eG*eG; antisense) [ISIS 474382] | 0% | 10% | 24% | 41% | 68% | 80% | 42 nM | 95% |  |  |  |  |  |  |  |  |  |  | 
6 | GCCTCAGAATCCTGGTGGGA (eG*e[5mC]*e[5mC]*eT*e[5mC]*dA*dG*dA*dA*dT*d[5mC]*d[5mC]*dT*dG*dG*eT*eG*eG*eG*eA; antisense) [ISIS 474437] | 5% | 6% | 26% | 36% | 62% | 82% | 49 nM | 94% |  |  |  |  |  |  |  |  |  |  | 
7 | TCCATGGAGTAGTTCTTGTA (eT*e[5mC]*e[5mC]*eA*eT*dG*dG*dA*dG*dT*dA*dG*dT*dT*d[5mC]*eT*eT*eG*eT*eA; antisense) [ISIS 474452] | 0% | 9% | 36% | 46% | 61% | 86% | 41 nM | 92% |  |  |  |  |  |  |  |  |  |  | 
8 | TCCTTGCTCAGCAGGTCGGC (eT*e[5mC]*e[5mC]*eT*eT*dG*d[5mC]*dT*d[5mC]*dA*dG*d[5mC]*dA*dG*dG*eT*e[5mC]*eG*eG*e[5mC]; antisense) [ISIS 474366] | 0% | 0% | 23% | 45% | 64% | 80% | 43 nM | 93% |  |  |  |  |  |  |  |  |  |  | 
9 | TCGGTGCCTCTGACACAGCG (eT*e[5mC]*eG*eG*eT*dG*d[5mC]*d[5mC]*dT*d[5mC]*dT*dG*dA*d[5mC]*dA*e[5mC]*eA*eG*e[5mC]*eG; antisense) [ISIS 474474] | 0% | 5% | 27% | 56% | 72% | 87% | 33 nM | 97% |  |  |  |  |  |  |  |  |  |  | 
10 | TGCACTGGTCCAGGGCCTCA (eT*eG*e[5mC]*eA*e[5mC]*dT*dG*dG*dT*d[5mC]*d[5mC]*dA*dG*dG*dG*e[5mC]*e[5mC]*eT*e[5mC]*eA; antisense) [ISIS 474351] | 6% | 0% | 8% | 48% | 66% | 84% | 44 nM | 94% |  |  |  |  |  |  |  |  |  |  | 
11 | TGTCAGTGACAGTGGCAGCT (antisense eT*eG*eT*e[5mC]*eA*dG*dT*dG*dA*d[5mC]*dA*dG*dT*dG*dG*e[5mC]*eA*eG*e[5mC]*eT) [ISIS 447159] |  |  |  |  |  |  |  |  | 12% | 19% | 37% | 62% | 78% | 86% | 71% | 41% | 60% | 76% | 85%
